Source: patent US12077503B2, “Substituted cyclic amides and their use as herbicides” (FMC CORPORATION, priority 2015, dated 2024)

Key:
Assay in all cases: Test E preemergence
Format in all cases: in vivo
Details in all cases: scale 0 to 100
[1] = test system: horseweed (Conyza canadensis)
Description: (§1) Seeds of plant species selected from corn (Zea mays), soybean (Glycine max), velvetleaf (Abutilon theophrasti), lambsquarters (Chenopodium album), poinsettia, wild (wild poinsettia, Euphorbia heterophylla), pigweed, palmer (palmer pigweed, Amaranthus palmeri), waterhemp (common waterhemp, Amaranthus rudis), surinam grass (Brachiaria decumbens), crabgrass, large (large crabgrass, Digitaria sangumnalis), crabgrass, Brazil (Brazilian crabgrass, Digitaria horizontalis), Panicum, fall (fall Panicum, Panicum dichotomiflorum), foxtail, giant (giant foxtail, Setaria faberii), foxtail, green (green foxtail, Setaria viridis), goosegrass (Eleusine indica), johnsongrass (Sorghum halepense), ragweed (common ragweed, Ambrosia elatior), barnyardgrass (Echinochloa crus-galli), sandbur (southern sandbur, Cenchrus echinatus), arrowleaf Sida (Sida rhombifolia), ryegrass, Italian (Italian ryegrass, Lolium multiflorum), dayflower, VA (Virginia dayflower, Commelina virginica), field bindweed (Convolvulus arvensis), morningglory (Ipomoea coccinea), nightshade (eastern black nightshade, Solanum ptycanthum), Kochia (Kochia scoparia), nutsedge, yellow (yellow nutsedge, Cyperus esculentus), horseweed (Conyza canadensis), and beggarticks (hairy beggarticks, Bidens pilosa), were planted into a silt loam soil and treated preemergence with test chemicals formulated in a non-phytotoxic solvent mixture which included a surfactant.
(§2) At the same time, plants selected from these crop and weed species were planted in pots containing Sunshine Redi-Earth planting medium comprising spaghnum peat moss, vermiculite, starter nutrients and dolomitic limestone and treated with postemergence applications of a test chemical formulated in the same manner. Plants ranged in height from 2 to 18 cm (1- to 4-leaf stage) for postemergence treatments. Treated plants and controls were maintained in a greenhouse for 14 to 21 d, after which time all species were compared to controls and visually evaluated. Plant response ratings, summarized in Table E, are based on a scale of 0 to 100 where 0 is no effect and 100 is complete control. A dash (-) response means no test result.

[2] = test system: arrowleaf Sida (Sida rhombifolia)
Description: as §1, §2

[3] = test system: morningglory (Ipomoea coccinea)
Description: as §1, §2

[4] = test system: beggarticks (hairy beggarticks, Bidens pilosa)
Description: as §1, §2

[5] = test system: corn (Zea mays)
Description: as §1, §2

[6] = test system: ryegrass, Italian (Italian ryegrass, Lolium multiflorum)
Description: as §1, §2

[7] = test system: sandbur (southern sandbur, Cenchrus echinatus)
Description: as §1, §2

[8] = test system: Kochia (Kochia scoparia)
Description: as §1, §2

[9] = test system: nightshade (eastern black nightshade, Solanum ptycanthum)
Description: as §1, §2

[10] = test system: foxtail, giant (giant foxtail, Setaria faberii)
Description: as §1, §2

[11] = test system: ragweed (common ragweed, Ambrosia elatior)
Description: as §1, §2

[12] = test system: crabgrass, large (large crabgrass, Digitaria sangumnalis)
Description: as §1, §2

[13] = test system: waterhemp (common waterhemp, Amaranthus rudis)
Description: as §1, §2

[14] = test system: surinam grass (Brachiaria decumbens)
Description: as §1, §2

[15] = test system: dayflower, VA (Virginia dayflower, Commelina virginica)
Description: as §1, §2

[16] = test system: field bindweed (Convolvulus arvensis)
Description: as §1, §2

[17] = test system: foxtail, green (green foxtail, Setaria viridis)
Description: as §1, §2

[18] = test system: velvetleaf (Abutilon theophrasti)
Description: as §1, §2

[19] = test system: lambsquarters (Chenopodium album)
Description: as §1, §2

[20] = test system: Panicum, fall (fall Panicum, Panicum dichotomiflorum)
Description: as §1, §2

[21] = test system: pigweed, palmer (palmer pigweed, Amaranthus palmeri)
Description: as §1, §2

## CN1CC(c2ccc(C(F)(F)F)cc2)C(C(=O)Nc2ccccc2S(C)(=O)=O)C1=O (stereo not shown) [Compound 624]
[1]; 31 g ai/ha
  Plant response rating: Horseweed: 30
[1]; 62 g ai/ha
  Plant response rating: Horseweed: 90
[1]; 250 g ai/ha
  Plant response rating: Horseweed: 85
[2]; 31 g ai/ha
  Plant response rating: Arrowleaf Sida: 50
[2]; 62 g ai/ha
  Plant response rating: Arrowleaf Sida: 50
[2]; 125 g ai/ha
  Plant response rating: Arrowleaf Sida: 40
[2]; 250 g ai/ha
  Plant response rating: Arrowleaf Sida: 60
[3]; 31 g ai/ha
  Plant response rating: Morningglory: 10
[3]; 62 g ai/ha
  Plant response rating: Morningglory: 20
[3]; 125 g ai/ha
  Plant response rating: Morningglory: 50
[3]; 250 g ai/ha
  Plant response rating: Morningglory: 40
[4]; 31 g ai/ha
  Plant response rating: Beggarticks: 20
[4]; 62 g ai/ha
  Plant response rating: Beggarticks: 25
[4]; 125 g ai/ha
  Plant response rating: Beggarticks: 40
[4]; 250 g ai/ha
  Plant response rating: Beggarticks: 50
[5]; 31 g ai/ha
  Plant response rating: Corn: 0
[5]; 62 g ai/ha
  Plant response rating: Corn: 0
[5]; 125 g ai/ha
  Plant response rating: Corn: 10
[5]; 250 g ai/ha
  Plant response rating: Corn: 20
[6]; 31 g ai/ha
  Plant response rating: Ryegrass, Italian: 0
[6]; 62 g ai/ha
  Plant response rating: Ryegrass, Italian: 0
[6]; 125 g ai/ha
  Plant response rating: Ryegrass, Italian: 10
[6]; 250 g ai/ha
  Plant response rating: Ryegrass, Italian: 15
[7]; 31 g ai/ha
  Plant response rating: Sandbur: 10
[7]; 62 g ai/ha
  Plant response rating: Sandbur: 30
[7]; 125 g ai/ha
  Plant response rating: Sandbur: 50
[7]; 250 g ai/ha
  Plant response rating: Sandbur: 50
[8]; 31 g ai/ha
  Plant response rating: Kochia: 0
[8]; 125 g ai/ha
  Plant response rating: Kochia: 0
[8]; 250 g ai/ha
  Plant response rating: Kochia: 30
[9]; 31 g ai/ha
  Plant response rating: Nightshade: 70
[9]; 62 g ai/ha
  Plant response rating: Nightshade: 75
[9]; 125 g ai/ha
  Plant response rating: Nightshade: 80
[9]; 250 g ai/ha
  Plant response rating: Nightshade: 80
[10]; 31 g ai/ha
  Plant response rating: Foxtail, Giant: 20
[10]; 62 g ai/ha
  Plant response rating: Foxtail, Giant: 50
[10]; 125 g ai/ha
  Plant response rating: Foxtail, Giant: 70
[10]; 250 g ai/ha
  Plant response rating: Foxtail, Giant: 85
[11]; 31 g ai/ha
  Plant response rating: Ragweed: 20
[11]; 62 g ai/ha
  Plant response rating: Ragweed: 20
[11]; 125 g ai/ha
  Plant response rating: Ragweed: 30
[11]; 250 g ai/ha
  Plant response rating: Ragweed: 30
[12]; 31 g ai/ha
  Plant response rating: Crabgrass, Large: 30
[12]; 62 g ai/ha
  Plant response rating: Crabgrass, Large: 85
[12]; 125 g ai/ha
  Plant response rating: Crabgrass, Large: 80
[12]; 250 g ai/ha
  Plant response rating: Crabgrass, Large: 90
[13]; 31 g ai/ha
  Plant response rating: Waterhemp: 50
[13]; 62 g ai/ha
  Plant response rating: Waterhemp: 60
[13]; 125 g ai/ha
  Plant response rating: Waterhemp: 75
[13]; 250 g ai/ha
  Plant response rating: Waterhemp: 70
[14]; 31 g ai/ha
  Plant response rating: Surinam Grass: 20
[14]; 62 g ai/ha
  Plant response rating: Surinam Grass: 30
[14]; 125 g ai/ha
  Plant response rating: Surinam Grass: 40
[14]; 250 g ai/ha
  Plant response rating: Surinam Grass: 70
[15]; 31 g ai/ha
  Plant response rating: Dayflower, VA: 0
[15]; 62 g ai/ha
  Plant response rating: Dayflower, VA: 0
[15]; 125 g ai/ha
  Plant response rating: Dayflower, VA: 30
[15]; 250 g ai/ha
  Plant response rating: Dayflower, VA: 50
[16]; 31 g ai/ha
  Plant response rating: Field Bindweed: 0
[16]; 62 g ai/ha
  Plant response rating: Field Bindweed: 10
[16]; 125 g ai/ha
  Plant response rating: Field Bindweed: 5
[16]; 250 g ai/ha
  Plant response rating: Field Bindweed: 10
[17]; 31 g ai/ha
  Plant response rating: Foxtail, Green: 20
[17]; 62 g ai/ha
  Plant response rating: Foxtail, Green: 20
[17]; 125 g ai/ha
  Plant response rating: Foxtail, Green: 65
[17]; 250 g ai/ha
  Plant response rating: Foxtail, Green: 75
[18]; 31 g ai/ha
  Plant response rating: Velvetleaf: 0
[18]; 62 g ai/ha
  Plant response rating: Velvetleaf: 0
[18]; 125 g ai/ha
  Plant response rating: Velvetleaf: 10
[18]; 250 g ai/ha
  Plant response rating: Velvetleaf: 20
[19]; 31 g ai/ha
  Plant response rating: Lambsquarters: 0
[19]; 62 g ai/ha
  Plant response rating: Lambsquarters: 0
[19]; 125 g ai/ha
  Plant response rating: Lambsquarters: 50
[19]; 250 g ai/ha
  Plant response rating: Lambsquarters: 85
[20]; 31 g ai/ha
  Plant response rating: Panicum, Fall: 0
[20]; 62 g ai/ha
  Plant response rating: Panicum, Fall: 0
[20]; 125 g ai/ha
  Plant response rating: Panicum, Fall: 30
[20]; 250 g ai/ha
  Plant response rating: Panicum, Fall: 60
[21]; 31 g ai/ha
  Plant response rating: Pigweed, Palmer: 0
[21]; 62 g ai/ha
  Plant response rating: Pigweed, Palmer: 25
[21]; 125 g ai/ha
  Plant response rating: Pigweed, Palmer: 20
[21]; 250 g ai/ha
  Plant response rating: Pigweed, Palmer: 30
